# In patent US7781641B2, “Absorbent article” (Kao Corporation, priority 2003, dated 2010):
# Assay: Method of measuring viscosity (tuning fork type vibration mode viscometer)
# Assay type: physicochemical
# Protocol: Measurement is conducted using a tuning fork type vibration mode viscometer (VIBRO NISCOMETERCJV5000 (manufactured by A&D Company Limited) is typically used in this embodiment). An oily skin care agent heated previously at about 100° C. is gradually cooled to room temperature, and viscosity at the predetermined temperature is measured.
# “Viscosity of a diamide derivative” in the present invention was measured by the same measuring method as used for the viscosity of an oily skin care agent in the above mentioned first embodiment.
structure (smiles),measurement,value
CCCCCCCCCCCCCCCCOCC(O)CN(CCO)C(=O)CCCCCCCCCCCCCCC (stereo not shown) [Monoamide of the formula (III)],viscosity at 36° C.,1000 mPa·s
